Test results: patent US9556150B2, “Inhibitors of bruton's tyrosine kinase” (Hoffmann-La Roche Inc., priority 2013, dated 2017)
Structures can show the parent of a compound that is named as a salt.

Target: Bruton's Tyrosine Kinase (BTK), inactivated state (Homo sapiens (Human), UniProt Q06187)
Assay: Bruton's Tyrosine Kinase (BTK) Inhibition TR-FRET (Time Resolved FRET) competition assay
Format: binding
Conditions: TR-FRET competition with Kinase Tracer 178, BTK-Eu complex, 18-24 h at 14° C.
Method: Bruton's Tyrosine Kinase (BTK) Inhibition TR-FRET (Time Resolved FRET) Assay
This BTK competition assay measures compound potency (IC50) for the inactivated state of Bruton's Tyrosine Kinase using FRET (Förster/Fluorescence Resonance Energy Transfer) technology. The BTK-Eu complex was incubated on ice one hour prior to use at a starting concentration of 50 nM BTK-Bioease™: 10 nM Eu-streptavidin (Perkin-Elmer Catalog#AD0062). The assay buffer consisted of 20 mM HEPES (pH 7.15), 0.1 mM DTT, 10 mM MgCl2, 0.5 mg/ml BSA with 3% Kinase Stabilizer (Fremont Biosolutions, Catalog #STB-K02). After 1 h, the reaction mixture from above was diluted 10 fold in assay buffer to make 5 nM BTK: 1 nM Eu-Streptavidin complex (donor fluorophore). 18 μl of a mixture of 0.11 nM BTK-Eu and 0.11 nM Kinase Tracer 178 (Invitrogen, Catalog #PV5593,) with BTK-Eu alone as no negative control, was then dispensed into 384-well flat bottom plates (Greiner, 784076). Compounds to be tested in assay were prepared as 10× concentrations and serial dilution in half-log increments was performed in DMSO so as to generate 10 point curves. To initiate the FRET reaction, compounds prepared as 10× stock in DMSO was added to the plates and the plates were incubated 18-24 h at 14° C.
After the incubation the plates were read on a BMG Pherastar Fluorescent plate reader (or equivalent) and used to measure the emission energy from the europium donor fluorophore (620 nm emission) and the FRET (665 nm emission). The negative control well values were averaged to obtain the mean minimum. The positive “no inhibitor” control wells were averaged to obtain the mean maximum. Percent of maximal FRET was calculated using following equation: % max FRET=100×[(FSR cmpd−FSR mean min)/(FSR mean max−FSR mean min)]
where FSR=FRET Signal ratio. % Max FRET curves were plotted in Activity Base (Excel) and the IC50(%), hill slope, z′ and % CV were determined. The mean IC50 and standard deviation will be derived from duplicate curves (singlet inhibition curves from two independent dilutions) using Microsoft Excel.
Representative compound data for this assay are listed below in Table II.

Bruton's Tyrosine Kinase (BTK), inactivated state, sequence (Q06187 whole entry): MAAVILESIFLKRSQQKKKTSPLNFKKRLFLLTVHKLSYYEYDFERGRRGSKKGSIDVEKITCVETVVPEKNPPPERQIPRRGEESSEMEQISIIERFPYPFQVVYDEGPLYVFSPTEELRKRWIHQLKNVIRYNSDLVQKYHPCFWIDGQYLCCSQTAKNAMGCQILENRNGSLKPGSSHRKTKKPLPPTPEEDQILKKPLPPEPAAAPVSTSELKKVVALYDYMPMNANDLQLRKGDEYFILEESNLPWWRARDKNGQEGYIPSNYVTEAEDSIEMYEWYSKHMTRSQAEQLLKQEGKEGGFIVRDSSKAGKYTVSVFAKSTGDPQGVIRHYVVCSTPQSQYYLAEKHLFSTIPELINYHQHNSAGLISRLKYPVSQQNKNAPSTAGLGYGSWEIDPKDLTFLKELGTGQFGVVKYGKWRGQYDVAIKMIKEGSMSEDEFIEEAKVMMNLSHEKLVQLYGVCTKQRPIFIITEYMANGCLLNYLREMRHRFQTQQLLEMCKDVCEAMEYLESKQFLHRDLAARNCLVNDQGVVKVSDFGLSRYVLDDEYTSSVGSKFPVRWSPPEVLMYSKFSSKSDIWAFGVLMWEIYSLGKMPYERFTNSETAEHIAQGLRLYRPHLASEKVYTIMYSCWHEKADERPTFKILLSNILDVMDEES

SMILES | IC50 [nM]
Nc1c(C(=O)c2cc3cc(C(=O)N4CCOCC4)ccc3[nH]2)cnn1-c1ccc(Oc2cccc(F)c2F)cc1O [Example I-29, {5-Amino-1-[4-(2,3-difluoro-phenoxy)-2-hydroxy-phenyl]-1H-pyrazol-4-yl}-[5-(morpholine-4-carbonyl)-1H-indol-2-yl]-methanone] | 4.3
N#Cc1cccc(Oc2ccc(-n3ncc(C(=O)c4cc5cc(C(=O)N6CCOCC6)ccc5[nH]4)c3N)c(Cl)c2)c1 [Example I-30, 3-(4-{5-Amino-4-[5-(morpholine-4-carbonyl)-1H-indole-2-carbonyl]-pyrazol-1-yl}-3-chloro-phenoxy)-benzonitrile] | 6.1
COC(=O)c1ccc2[nH]c(C(=O)c3cnn(-c4ccc(Oc5cccc(C#N)c5)cc4C)c3N)cc2c1 [Example I-31, 2-{5-Amino-1-[4-(3-cyano-phenoxy)-2-methyl-phenyl]-1H-pyrazole-4-carbonyl}-H-indole-5-carboxylic acid methyl ester] | 29
Cc1cc(Oc2cccc(C#N)c2)ccc1-n1ncc(C(=O)c2cc3cc(C(=O)O)ccc3[nH]2)c1N [Example I-32, 2-{5-Amino-1-[4-(3-cyano-phenoxy)-2-methyl-phenyl]-1H-pyrazole-4-carbonyl}-H-indole-5-carboxylic acid] | 22
N#Cc1cccc(Oc2ccc(-n3ncc(C(=O)c4cc5cc(Br)ccc5[nH]4)c3N)c(Cl)c2)c1 [Example I-33, 3-{4-[5-Amino-4-(5-bromo-1H-indole-2-carbonyl)-pyrazol-1-yl]-3-chloro-phenoxy}-benzonitrile] | 430
N#Cc1cccc(Oc2ccc(-n3ncc(C(=O)c4cc5cc(C(=O)O)ccc5[nH]4)c3N)c(Cl)c2)c1 [Example I-34, 2-{5-Amino-1-[2-chloro-4-(3-cyano-phenoxy)-phenyl]-1H-pyrazole-4-carbonyl}-1H-indole-5-carboxylic acid] | 25.1
COCCNC(=O)c1ccc2[nH]c(C(=O)c3cnn(-c4ccc(Oc5cccc(F)c5F)cc4C)c3N)cc2c1 [Example I-35, 2-{5-Amino-1-[4-(2,3-difluoro-phenoxy)-2-methyl-phenyl]-1H-pyrazole-4-carbonyl}-1H-indole-5-carboxylic acid (2-methoxy-ethyl)-amide] | 1.8
Cc1cc(Oc2cccc(C#N)c2)ccc1-n1ncc(C(=O)c2cc3cc(C(=O)NCCN)ccc3[nH]2)c1N [Example I-36, 2-{5-Amino-1-[4-(3-cyano-phenoxy)-2-methyl-phenyl]-1H-pyrazole-4-carbonyl}-H-indole-5-carboxylic acid (2-amino-ethyl)-amide] | 5
NC(=O)c1cccc(Oc2ccc(-n3ncc(C(=O)c4cc5cc(C(=O)N6CCOCC6)ccc5[nH]4)c3N)c(Cl)c2)c1 [Example I-37, 3-(4-{5-Amino-4-[5-(morpholine-4-carbonyl)-1H-indole-2-carbonyl]-pyrazol-1-yl}-3-chloro-phenoxy)-benzamide] | 50
COC(=O)c1ccc2[nH]c(C(=O)c3cnn(-c4ccc(Oc5cccc(C#N)c5)cc4C)c3N)nc2c1 [Example I-38, 2-{5-Amino-1-[4-(3-cyano-phenoxy)-2-methyl-phenyl]-1H-pyrazole-4-carbonyl}-1H-benzoimidazole-5-carboxylic acid methyl ester] | 150
Cc1cc(Oc2cccc(C#N)c2)ccc1-n1ncc(C(=O)c2nc3cc(C(=O)N4CCOCC4)ccc3[nH]2)c1N [Example I-39, 3-(4-{5-Amino-4-[5-(morpholine-4-carbonyl)-1H-benzoimidazole-2-carbonyl]-pyrazol-1-yl}-3-methyl-phenoxy)-benzonitrile] | 24
COCCNC(=O)c1ccc2[nH]c(C(=O)c3cnn(-c4ccc(Oc5cccc(C#N)c5)cc4C)c3N)nc2c1 [Example I-40, 2-{5-Amino-1-[4-(3-cyano-phenoxy)-2-methyl-phenyl]-1H-pyrazole-4-carbonyl}-1H-benzoimidazole-5-carboxylic acid (2-methoxy-ethyl)-amide] | 23
N#CNC(=O)c1ccc2[nH]c(C(=O)c3cnn(-c4ccc(Oc5cccc(C#N)c5)cc4Cl)c3N)cc2c1 [Example I-41, 2-{5-Amino-1-[2-chloro-4-(3-cyano-phenoxy)-phenyl]-1H-pyrazole-4-carbonyl}-N-cyano-1H-indole-5-carboxylic acid amide] | 52
Cc1cc(Oc2cccc(C#N)c2)ccc1-n1ncc(C(=O)c2nc3cc(C(=O)O)ccc3[nH]2)c1N [Example I-42, 2-{5-Amino-1-[4-(3-cyano-phenoxy)-2-methyl-phenyl]-1H-pyrazole-4-carbonyl}-1H-benzoimidazole-5-carboxylic acid] | 130
Cc1cc(Oc2ccccc2C#N)ccc1-n1ncc(C(=O)c2cc3cc(C(=O)N4CCOCC4)ccc3[nH]2)c1N [Example I-43, 2-(4-{5-Amino-4-[5-(morpholine-4-carbonyl)-1H-indole-2-carbonyl]-pyrazol-1-yl}-3-methyl-phenoxy)-benzonitrile] | 1.3
CN1CCN(C(=O)c2ccc3[nH]c(C(=O)c4cnn(-c5ccc(Oc6cccc(C#N)c6)cc5Cl)c4N)cc3c2)CC1 [Example I-44, 3-(4-{5-Amino-4-[5-(4-methyl-piperazine-1-carbonyl)-1H-indole-2-carbonyl]-pyrazol-1-yl}-3-chloro-phenoxy)-benzonitrile hydrochloride salt] | 8
N#Cc1cccc(Oc2ccc(-n3ncc(C(=O)c4cc5cc(C(=O)NS(=O)(=O)C6CC6)ccc5[nH]4)c3N)c(Cl)c2)c1 [Example I-45, Cyclopropanesulfonic acid (2-{5-amino-1-[2-chloro-4-(3-cyano-phenoxy)-phenyl]-1H-pyrazole-4-carbonyl}-1H-indole-5-carbonyl)-amide] | 1.7
CN1CCN(C(=O)c2ccc3[nH]c(C(=O)c4cnn(-c5ccc(Oc6ccccc6C(=O)N(C)C)cc5Cl)c4N)cc3c2)CC1 [Example I-46, 2-(4-{5-Amino-4-[5-(4-methyl-piperazine-1-carbonyl)-1H-indole-2-carbonyl]-pyrazol-1-yl}-3-chloro-phenoxy)-N,N-dimethyl-benzamide] | 4.2
CN1CCN(C(=O)c2ccc3[nH]c(C(=O)c4cnn(-c5ccc(Oc6cccc(C(=O)N(C)C)c6)cc5Cl)c4N)cc3c2)CC1 [Example I-47, 3-(4-{5-Amino-4-[5-(4-methyl-piperazine-1-carbonyl)-1H-indole-2-carbonyl]-pyrazol-1-yl}-3-chloro-phenoxy)-N,N-dimethyl-benzamide] | 32
N#Cc1cccc(Oc2ccc(-n3ncc(C(=O)c4cc5cc(C(=O)O)ccc5[nH]4)c3N)c(Cl)c2)c1F [Example I-48, 2-{5-Amino-1-[2-chloro-4-(3-cyano-2-fluoro-phenoxy)-phenyl]-1H-pyrazole-4-carbonyl}-1H-indole-5-carboxylic acid] | 3.2
CN(C)CCNC(=O)c1ccc2[nH]c(C(=O)c3cnn(-c4ccc(Oc5ccccc5C(=O)N(C)C)cc4Cl)c3N)cc2c1 [Example I-49, 2-{5-Amino-1-[2-chloro-4-(2-dimethylcarbamoyl-phenoxy)-phenyl]-1H-pyrazole-4-carbonyl}-1H-indole-5-carboxylic acid (2-dimethylamino-ethyl)-amide] | 1.4
CN(C)C(=O)c1ccccc1Oc1ccc(-n2ncc(C(=O)c3cc4cc(C(=O)N5CCC(N(C)C)C5)ccc4[nH]3)c2N)c(Cl)c1 (stereo not shown) [Example I-50, 2-(4-{5-Amino-4-[5-(3-dimethylamino-pyrrolidine-1-carbonyl)-1H-indole-2-carbonyl]-pyrazol-1yl}-3-chloro-phenoxy)-N,N-dimethyl-benzamide] | 2.5
CN(C)C(=O)c1ccccc1Oc1ccc(-n2ncc(C(=O)c3cc4cc(C(=O)N5CCNCC5)ccc4[nH]3)c2N)c(Cl)c1 [Example I-51, 2-(4-{5-Amino-4-[5-(piperazine-1-carbonyl)-1H-indole-2-carbonyl]-pyrazol-1-yl}-3-chloro-phenoxy)-N,N-dimethyl-benzamide acetic acid salt] | 1.1
CN(C)C(=O)c1ccccc1Oc1ccc(-n2ncc(C(=O)c3cc4cc(C(=O)N5CCC(N(C)C(=O)OC(C)(C)C)C5)ccc4[nH]3)c2N)c(Cl)c1 (stereo not shown) [Example I-52, [1-(2-{5-Amino-1-[2-chloro-4-(2-dimethylcarbamoyl-phenoxy)-phenyl]-1Hpyrazole-4-carbonyl}-1H-indole-5-carbonyl)-pyrrolidin-3-yl]-methyl-carbamic acid tert-butyl ester] | 17
CNC1CCN(C(=O)c2ccc3[nH]c(C(=O)c4cnn(-c5ccc(Oc6ccccc6C(=O)N(C)C)cc5Cl)c4N)cc3c2)C1 (stereo not shown) [Example I-53, acetic acid salt] | 1.7
